Consider four molecules from patent US5079346A, “Gallium-labelled imaging agents” (priority 1990, dated 1992).

Values joined by “and” are separate entries in the source; they are usually repeats but may differ in a detail not shown here. Identical values can stand only once. Like-named read-outs stand apart in the source and are kept apart here.

For data set [1] the following is noted: rats, cited from earlier work.
The conditions of data set [2]: literature, cited from earlier work.
For data set [3] the following is noted: literature; cited from earlier work.
Data set [4] in a line: Biodistribution in rats after an iv injection. The following applies: for Biodistribution, Blood: blood assumed 7% of body weight; for Biodistribution, Muscle: muscle assumed 40% of body weight; for Brain/Blood: ratio. It is filed as in vivo, male Sprague Dawley rats. As for the experimental part: Biodistribution of [^67 Ga]BAT-TECH was studied in male Sprague Dawley rats (200-250 g) which were allowed access to food and water ad lib. Saline solution containing [^67 Ga]BAT-TECH in a volume of 0.2 ml was injected directly into a femoral vein. Rats were sacrified (at various time points, 2, 30 and 60 min., post injection) by cardiac excision under ether anesthesia. The organs of interest were removed and counted using a well gamma counter. Percent dose per organ was calculated by comparison of tissue counts to suitably diluted aliquots of injected material. Total activities of blood and muscle were calculated assuming that they are 7% and 40% of total body weight, respectively. Each time point consists of a group of three rats.
2,9-Dimethyl-2,9-mercapto-5-(2-hydroxyphnyl)-4,7-diazadecane was labelled, and the biodistributino of the labelled compound measured, by analogous methods.

Data set [5] is described as follows: Lipid solubility (reverse phase HPLC, PRP-1 column). It is filed as physicochemical. The following applies: PRP-1, pH 7. The protocol:
At tracer concentrations, the aqueous chemistry has been studied using [^67 Ga] gallium citrate as the starting material. […] The ratio of ligand to ^67 Ga was determined to be […]. Presumably, under the conditions required for the preparation of the ^67 Ga complex, the cationic [^67 Ga(BAT-TECH)]^+ species is formed.

For data set [6] the following is noted: 1-octanol/0.1 m phosphate.
Description: The partition coefficient of the [^67 Ga(BAT-TECH)]^+ complex was measured by mixing the compound with 3 g each of 1-octanol and buffer (pH 7.0 or 7.4, 0.1 M phosphate) in a test tube. This test tube was vortexed for 3 minutes at room temperature and then centrifuged for 5 minutes. Two weighed samples (0.5 g each) from the 1-octanol and buffer layers were counted in a well counter. The partition coefficient was determined by calculating the ratio of counts per minute/gram of octanol to that of buffer. Samples from the octanol layer were repartitioned until consistent partition coefficient values were obtained. The measurement was repeated three times.
Setting [7] is: iv, versus [^68 Ga](5-MeOSal)3 TAME.

With `COc1ccc2c(c1)C=NCC1(C)CN=Cc3cc(OC)ccc3[O][68Ga]([O]2)[O]c2ccc(OC)cc2C=NC1` [[^68 Ga](5-MeOSal)3 TAME, Gallium-68 1,1,1-tris (5-methoxysalicylaldimino-methyl)ethane], the heart uptake is given as 0.97 % dose/whole heart in data set [1] (1 min postinjection), 0.23 % dose/whole heart in data set [1] (30 min postinjection) and 0.14 % dose/whole heart in data set [1] (60 min postinjection).

On to `CNC1=NN=CC(C)=NN=C(NC)[S][Cu][S]1` [Cu(PTSM), copper-labeled pyruvaldehyde bis(N4-methylthiosemicarbazone)], for which the intracellular stability result in data set [2] (after interacting with sulfurhydryl groups) is reported as “decomposes intracellularly”. The “passage through the cell membrane / blood-brain barrier” value in data set [2] (after intravenous injection) is on record as “passes through the cell membrane, including the intact blood-brain barrier”. For the same molecule, the lipid solubility result in data set [3] is “neutral and lipid-soluble”.

For the molecule `CC1(C)C[NH+]2CC(c3ccccc3O)[NH+]3CC(C)(C)[S][67Ga-]23[S]1` (stereo not drawn) [[^67 Ga]2,9-Dimethyl-2,9-Dimercapto-5-(2-hydroxyphenyl)-4,7-diazadecane], in data set [4] (iv, 2 min), the “Biodistribution, Brain” value is on record as “.026 ± .002 % dose/organ”; the “Biodistribution, Heart” value is listed as “.940 ± .094 % dose/organ”; the “Biodistribution, Kidney” value is 5.677 ± .266 % dose/organ; the “Biodistribution, Liver” value was found to be 20.93 ± 4.13 % dose/organ. In data set [4] (iv, 2 min), the “Biodistribution, Lung” value is 1.236 ± .155 % dose/organ; the “Biodistribution, Skin” value is reported as “.137 ± .023 % dose/organ”; the “Biodistribution, Spleen” value is “.431 ± .085 % dose/organ”; the “Biodistribution, Blood” value is given as 11.240 ± .724 % dose/organ. Besides, in data set [4] (iv, 2 min), the “Biodistribution, Muscle” value turned out to be 14.392 ± 2.91 % dose/organ and the Brain/Blood entry was “.028”. For the same molecule, in data set [4] (iv, 30 min), the “Biodistribution, Brain” value is reported as “.019 ± .001 % dose/organ”; the “Biodistribution, Heart” value is recorded as “.380 ± .039 % dose/organ”; the “Biodistribution, Kidney” value is listed as 1.204 ± .080 % dose/organ; the “Biodistribution, Liver” value is on record as 25.31 ± 1.09 % dose/organ. Besides, in data set [4] (iv, 30 min), the “Biodistribution, Lung” value is “.690 ± .481 % dose/organ”; the “Biodistribution, Skin” value is recorded as “.079 ± .004 % dose/organ”; the “Biodistribution, Spleen” value is on record as “.155 ± .022 % dose/organ”; the “Biodistribution, Blood” value is listed as 2.823 ± .182 % dose/organ. Besides, in data set [4] (iv, 30 min), the “Biodistribution, Muscle” value amounted to 17.49 ± 1.37 % dose/organ and the Brain/Blood result is “.073”.

With `CCC1(CC)C[NH+]2CC3(CCCCC3)[NH+]3CC(CC)(CC)[S][67Ga-]23[S]1` (stereo not drawn) [[^67 Ga]BAT-TECH], in data set [4] (in words), the “blood and lung washout” value is “rapid blood and lung washout”; the myocardial uptake entry was “fast myocardial uptake”. For the same molecule, the “uptake in the liver, washout” value in data set [4] (iv) is recorded as “significant uptake in the liver which does not wash out with time”. In addition, in data set [4] (iv, 2 min), the “Biodistribution, Brain” value was 0.02 ± 0.004 % dose/organ; the “Biodistribution, Heart” value was 1.68 % dose/organ and 1.68 ± 0.12 % dose/organ; the “Biodistribution, Kidney” value is given as 6.94 ± 0.31 % dose/organ; the “Biodistribution, Liver” value is listed as 21.52 ± 1.11 % dose/organ. In addition, in data set [4] (iv, 2 min), the “Biodistribution, Lung” value is given as 2.07 ± 0.07 % dose/organ; the “Biodistribution, Skin” value is 5.44 ± 1.65 % dose/organ; the “Biodistribution, Spleen” value is listed as 0.50 ± 0.06 % dose/organ; the “Biodistribution, Blood” value worked out at 10.18 ± 0.30 % dose/organ. For the same molecule, the “Biodistribution, Muscle” value in data set [4] (iv, 2 min) was found to be 13.89 ± 3.21 % dose/organ. In data set [4] (iv, 30 min), the “Biodistribution, Brain” value was 0.01 ± 0.001 % dose/organ; the “Biodistribution, Heart” value amounted to 0.52 ± 0.08 % dose/organ; the “Biodistribution, Kidney” value is listed as 2.00 ± 0.10 % dose/organ; the “Biodistribution, Liver” value is recorded as 33.54 ± 4.42 % dose/organ. Besides, in data set [4] (iv, 30 min), the “Biodistribution, Lung” value was found to be 0.46 ± 0.09 % dose/organ; the “Biodistribution, Skin” value was determined as 7.56 ± 1.60 % dose/organ; the “Biodistribution, Spleen” value worked out at 0.15 ± 0.009 % dose/organ; the “heart uptake” value was 0.52 % dose/g. In addition, in data set [4] (iv, 30 min), the “Biodistribution, Blood” value turned out to be 3.58 ± 0.08 % dose/organ and the “Biodistribution, Muscle” value was determined as 21.14 ± 2.18 % dose/organ. In data set [4] (iv, 60 min), the “Biodistribution, Brain” value was determined as 0.01 ± 0.002 % dose/organ; the “Biodistribution, Heart” value came to 0.26 ± 0.02 % dose/organ; the “Biodistribution, Kidney” value stood at 1.06 ± 0.14 % dose/organ; the “Biodistribution, Liver” value was 46.41 ± 2.39 % dose/organ. Also, in data set [4] (iv, 60 min), the “Biodistribution, Lung” value amounted to 0.37 ± 0.009 % dose/organ; the “Biodistribution, Skin” value turned out to be 5.78 ± 0.92 % dose/organ; the “Biodistribution, Spleen” value is 0.11 ± 0.001 % dose/organ; the “Biodistribution, Blood” value was determined as 4.54 ± 1.10 % dose/organ. Also, in data set [4] (iv, 60 min), the “Biodistribution, Muscle” value was found to be 10.79 ± 1.85 % dose/organ. In data set [4] (iv, 1 hour), the “heart uptake” value amounted to 0.26 % dose/g. Further, in data set [4] (setting [7]), the “heart to blood ratio” value is “comparable to or superior to those reported for [^68 Ga](5- MeOSal)3 TAME” and the “heart to lung ratio” value is “comparable to or superior to those reported for [^68 Ga](5- MeOSal)3 TAME”. Besides, the lipid solubility entry in data set [5] is on record as “very lipid-soluble”. For the same molecule, the “partition coefficient (1-octanol/buffer)” value in data set [6] (pH 7) was 147±5.18. Also, the “partition coefficient (1-octanol/buffer)” value in data set [6] (pH 7.4) came out at 72.3±3.47.
